Consider one molecule from US10744152B2, “Application of Asarum total polysaccharides in preparation of medicine for treating cough” (THE FIRST AFFILIATED HOSPITAL OF GUANGZHOU MEDICAL …, priority 2014, dated 2020).

Marks after values point to notes of the source that are not given here.

Assay [1] concerns guinea pig models with acute cough. Nature of the assay: Acute antitussive effect on cough of guinea pigs induced by citric acid.
For assay [2], the system named is guinea pig models with cough hypersensitivity. Nature of the assay: Airway inflammation indicators in BALF (TCC, classification of cells) of guinea pig models with cough hypersensitivity. In kind it is in vivo. The conditions noted are these: 30 mg/kg, 14 days. From the text:
Experimental materials are same as those of the Embodiment 5. […] Schmidt var.

For assay [3] the test system is unchanged. Description: Antitussive effect on guinea pig models with cough hypersensitivity (CS-exposure 14 days, citric acid excitation). The conditions noted are these: for Antitussive rate: vs model group. In kind it is in vivo. How it is done:
(1) Calculating the cough frequency within 6 min after citric acid excitation, and calculating the antitussive rate of each administration group by using the formula “the antitussive rate=(Nmodel group−Nadministration group)/Nmodel group×100%”.
(2) Calculating the cough latent period of each administration group within 6 min after citric acid excitation;
Experimental materials are same as those of the Embodiment 5. […] Schmidt var. Mandshuricum (Maxim.) Kitag. into pieces, adding 20 times amount of distilled water to soak the cut roots overnight, extracting decoction from boiling water for 6 hours, filtering the decoction with four layers of gauze, repeatedly decocting filter residues twice, 6 hours each time, combining the filtrates, concentrating the filtrate to 1000 ml, precipitating with 80% of ethanol, centrifuging (4500 r/m, 10 min), and conventionally drying the precipitates (washing the precipitates three times with each of ethanol and ether) to obtain coarse Asarum polysaccharides (Li Jingjing, Study on the Separation, Purification and Immunological Activity of Polysaccharide from Asarum heterotropoides, Journal of Changchun Normal University (Natural Science), 2008, 27(1): 54-58)), a group of the Asarum total polysaccharides extract in the Embodiment 1 (800 mg/kg), and a group of the Asarum total polysaccharide extract in the Embodiment 2 (800 mg/kg). The rest of experimental methods are same as the Embodiment 5.

Consider `COc1ccc2c3c1O[C@H]1[C@@H](O)C=C[C@H]4[C@@H](C2)N(C)CC[C@@]341` [Codeine phosphate, codeine phosphate], for which the Cough frequency in assay [1] (30 mg/kg once a day for 3 days, within 6 min after citric acid nebulization) is 8.5 +/− 2.6*** times; in assay [3] (30 mg/kg intragastric once a day 14 days, CS-exposure 14 days, within 6 min after citric acid), 5.7 +/− 1.9*** times; in assay [3] (Embodiment 8 comparison of different extracts, 30 mg/kg, 14 days), 5.7 +/− 1.9*** times. Besides, the Cough latent period is 95.3 ± 18.3 s in assay [1] (30 mg/kg, 3 days, after citric acid nebulization) and 199.7 +/− 37.7*** seconds in assay [3] (30 mg/kg, 14 days, CS-exposure, after citric acid). Besides, the Antitussive rate came to 70.5% in assay [1] (30 mg/kg, 3 days, vs blank control group); 81.1% in assay [3] (30 mg/kg, 14 days); 81.1% in assay [3] (Embodiment 8 comparison, 30 mg/kg, 14 days). For the same molecule, the Eos % in assay [2] (BALF) is 3.6 +/− 3.1%. Further, the Lym % in assay [2] (BALF) was 5.3 +/− 1.1%. In addition, in assay [2] (macrophages in BALF), the Mac % is recorded as 39.4 +/− 7.1%. The Neu % in assay [2] (neutrophils in BALF) is 51.8 +/− 8.4%.
